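Test compounds were applied to cells in 96-well plates for 48 hours at 5 doses. Abbreviation: GI50, concentration required for 50% inhibition of growth. TGI marks complete inhibition of growth.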
Experiments:
Test in all cases: DTP human tumour cell line panel, 48 h
RPMI-8226 leukemia = tested on: RPMI-8226 leukemia
SR leukemia = tested on: SR leukemia
A549 NSCLC = tested on: A549 NSCLC
CAKI-1 renal = tested on: CAKI-1 renal
BT-549 breast = tested on: BT-549 breast
MALME-3M melanoma = tested on: MALME-3M melanoma
SF-295 CNS = tested on: SF-295 CNS
HT29 colon = tested on: HT29 colon
UACC-257 melanoma = tested on: UACC-257 melanoma
MDA-MB-231 breast = tested on: MDA-MB-231 breast
MDA-MB-435 = tested on: MDA-MB-435
NCI/ADR-RES ovarian = tested on: NCI/ADR-RES ovarian
RXF 393 renal = tested on: RXF 393 renal
NCI-H226 lung = tested on: NCI-H226 lung
MCF7 breast = tested on: MCF7 breast
HCT-116 colon = tested on: HCT-116 colon
DU-145 prostate = tested on: DU-145 prostate
HS 578T breast = tested on: HS 578T breast
OVCAR-4 ovarian = tested on: OVCAR-4 ovarian
UO-31 renal = tested on: UO-31 renal
TK-10 renal = tested on: TK-10 renal
786-0 renal = tested on: 786-0 renal
COLO 205 colon = tested on: COLO 205 colon
NCI-H522 lung = tested on: NCI-H522 lung
HOP-62 NSCLC = tested on: HOP-62 NSCLC
PC-3 prostate = tested on: PC-3 prostate
SW-620 colon = tested on: SW-620 colon
EKVX NSCLC = tested on: EKVX NSCLC
LOX IMVI melanoma = tested on: LOX IMVI melanoma
ACHN renal = tested on: ACHN renal
SF-539 CNS = tested on: SF-539 CNS
NCI-H23 lung = tested on: NCI-H23 lung
NCI-H460 lung = tested on: NCI-H460 lung
IGROV1 ovarian = tested on: IGROV1 ovarian
SK-MEL-5 melanoma = tested on: SK-MEL-5 melanoma
CCRF-CEM leukemia = tested on: CCRF-CEM leukemia
SK-MEL-2 melanoma = tested on: SK-MEL-2 melanoma
SF-268 CNS = tested on: SF-268 CNS
UACC-62 melanoma = tested on: UACC-62 melanoma
HL-60(TB) leukemia = tested on: HL-60(TB) leukemia
A498 renal = tested on: A498 renal
OVCAR-8 ovarian = tested on: OVCAR-8 ovarian
K-562 leukemia = tested on: K-562 leukemia
M14 melanoma = tested on: M14 melanoma
MOLT-4 leukemia = tested on: MOLT-4 leukemia
HCT-15 colon = tested on: HCT-15 colon
OVCAR-3 ovarian = tested on: OVCAR-3 ovarian
SN12C renal = tested on: SN12C renal
HCC-2998 colon = tested on: HCC-2998 colon
T-47D breast = tested on: T-47D breast
U251 CNS = tested on: U251 CNS
SNB-19 CNS = tested on: SNB-19 CNS
SK-OV-3 ovarian = tested on: SK-OV-3 ovarian
KM12 colon = tested on: KM12 colon
HOP-92 NSCLC = tested on: HOP-92 NSCLC
SNB-75 CNS = tested on: SNB-75 CNS
SK-MEL-28 melanoma = tested on: SK-MEL-28 melanoma
OVCAR-5 ovarian = tested on: OVCAR-5 ovarian

`COc1ccccc1NC(=O)c1cc2cc(Br)ccc2cc1O` showed a GI50 (RPMI-8226 leukemia) of 1.45 µM, a TGI (RPMI-8226 leukemia) of 4.66 µM and a GI50 (SR leukemia) of 0.809 µM. The TGI (SR leukemia) was 9.14 µM, the GI50 (A549 NSCLC) was 2.65 µM and the TGI (A549 NSCLC) was 7.71 µM. For the same compound, the GI50 (CAKI-1 renal) was 1.42 µM, the TGI (CAKI-1 renal) was 4.69 µM and the GI50 (BT-549 breast) was 2.15 µM. For the same compound, the TGI (BT-549 breast) was 6.12 µM, the GI50 (MALME-3M melanoma) was 1.39 µM and the TGI (MALME-3M melanoma) was 4.87 µM. For the same compound, the GI50 (SF-295 CNS) was 2.31 µM, the TGI (SF-295 CNS) was 7.59 µM and the GI50 (HT29 colon) was 7.73 µM. For the same compound, the TGI (HT29 colon) was 21.5 µM, the GI50 (UACC-257 melanoma) was 1.97 µM and the TGI (UACC-257 melanoma) was 5.3 µM. The GI50 (MDA-MB-231 breast) was 2.05 µM, the TGI (MDA-MB-231 breast) was 5.69 µM and the GI50 (MDA-MB-435) was 2.35 µM. For the same compound, the TGI (MDA-MB-435) was 8.58 µM, the GI50 (NCI/ADR-RES ovarian) was 2.75 µM and the TGI (NCI/ADR-RES ovarian) was 12.1 µM. For the same compound, the GI50 (RXF 393 renal) was 2.36 µM, the TGI (RXF 393 renal) was 7.11 µM and the GI50 (NCI-H226 lung) was 1.65 µM. It also gave a TGI (NCI-H226 lung) of 6.06 µM, a GI50 (MCF7 breast) of 1.76 µM and a TGI (MCF7 breast) of 9.3 µM. For the same compound, the GI50 (HCT-116 colon) was 2.8 µM, the TGI (HCT-116 colon) was 10.3 µM and the GI50 (DU-145 prostate) was 3.28 µM. For the same compound, the TGI (DU-145 prostate) was 14 µM, the GI50 (HS 578T breast) was 2.61 µM and the GI50 (OVCAR-4 ovarian) was 3.11 µM. For the same compound, the TGI (OVCAR-4 ovarian) was 21.4 µM, the GI50 (UO-31 renal) was 1.57 µM and the TGI (UO-31 renal) was 7.85 µM. For the same compound, the GI50 (TK-10 renal) was 4.31 µM, the TGI (TK-10 renal) was 15.3 µM and the GI50 (786-0 renal) was 3.52 µM. For the same compound, the TGI (786-0 renal) was 11.2 µM, the GI50 (COLO 205 colon) was 4 µM and the TGI (COLO 205 colon) was 15.8 µM. For the same compound, the GI50 (NCI-H522 lung) was 1.86 µM, the TGI (NCI-H522 lung) was 7 µM and the GI50 (HOP-62 NSCLC) was 2.38 µM. For the same compound, the TGI (HOP-62 NSCLC) was 6.86 µM, the GI50 (PC-3 prostate) was 1.83 µM and the TGI (PC-3 prostate) was 6.79 µM. It also gave a GI50 (SW-620 colon) of 3.12 µM, a TGI (SW-620 colon) of 11.1 µM and a GI50 (EKVX NSCLC) of 1.77 µM. For the same compound, the TGI (EKVX NSCLC) was 8.1 µM, the GI50 (LOX IMVI melanoma) was 2.69 µM and the TGI (LOX IMVI melanoma) was 8.8 µM. For the same compound, the GI50 (ACHN renal) was 2.52 µM, the TGI (ACHN renal) was 7.21 µM and the GI50 (SF-539 CNS) was 2.34 µM. For the same compound, the TGI (SF-539 CNS) was 7.34 µM, the GI50 (NCI-H23 lung) was 2.19 µM and the TGI (NCI-H23 lung) was 8.71 µM. For the same compound, the GI50 (NCI-H460 lung) was 2.15 µM, the TGI (NCI-H460 lung) was 6.77 µM and the GI50 (IGROV1 ovarian) was 1.6 µM. It also gave a TGI (IGROV1 ovarian) of 6.56 µM, a GI50 (SK-MEL-5 melanoma) of 1.46 µM and a TGI (SK-MEL-5 melanoma) of 3.11 µM. The GI50 (CCRF-CEM leukemia) was 2.62 µM, the TGI (CCRF-CEM leukemia) was 9.5 µM and the GI50 (SK-MEL-2 melanoma) was 2.03 µM. It also gave a TGI (SK-MEL-2 melanoma) of 5.51 µM, a GI50 (SF-268 CNS) of 3.21 µM and a TGI (SF-268 CNS) of 16.2 µM. The GI50 (UACC-62 melanoma) was 1.7 µM, the TGI (UACC-62 melanoma) was 8.23 µM and the GI50 (HL-60(TB) leukemia) was 2.14 µM. For the same compound, the TGI (HL-60(TB) leukemia) was > 22.1 µM, the GI50 (A498 renal) was 2.96 µM and the TGI (A498 renal) was 11 µM. For the same compound, the GI50 (OVCAR-8 ovarian) was 3 µM, the TGI (OVCAR-8 ovarian) was 14.7 µM and the GI50 (K-562 leukemia) was 2.37 µM. The TGI (K-562 leukemia) was > 100 µM, the GI50 (M14 melanoma) was 3.01 µM and the TGI (M14 melanoma) was 11.9 µM. The GI50 (MOLT-4 leukemia) was 2.7 µM, the TGI (MOLT-4 leukemia) was 17.3 µM and the GI50 (HCT-15 colon) was 2.37 µM. For the same compound, the TGI (HCT-15 colon) was 8.54 µM, the GI50 (OVCAR-3 ovarian) was 2.48 µM and the TGI (OVCAR-3 ovarian) was 9.06 µM. The GI50 (SN12C renal) was 2.73 µM, the TGI (SN12C renal) was 9.64 µM and the GI50 (HCC-2998 colon) was 3.21 µM. For the same compound, the TGI (HCC-2998 colon) was 11.8 µM, the GI50 (T-47D breast) was 2 µM and the TGI (T-47D breast) was 10.7 µM. It also gave a GI50 (U251 CNS) of 2.65 µM, a TGI (U251 CNS) of 9.58 µM and a GI50 (SNB-19 CNS) of 3.46 µM. For the same compound, the TGI (SNB-19 CNS) was 16.1 µM, the GI50 (SK-OV-3 ovarian) was 1.75 µM and the TGI (SK-OV-3 ovarian) was 6.08 µM. The GI50 (KM12 colon) was 3.17 µM, the TGI (KM12 colon) was 10.8 µM and the GI50 (HOP-92 NSCLC) was 1.34 µM. It also gave a TGI (HOP-92 NSCLC) of 4.78 µM, a GI50 (SNB-75 CNS) of 2.12 µM and a TGI (SNB-75 CNS) of 8.89 µM. It also gave a GI50 (SK-MEL-28 melanoma) of 4.46 µM, a TGI (SK-MEL-28 melanoma) of 14.4 µM and a GI50 (OVCAR-5 ovarian) of 3.48 µM. For the same compound, the TGI (OVCAR-5 ovarian) was 12.9 µM.

Source: PubChem BioAssay (NCI)
